ChEMBL document CHEMBL1201862, “PubChem BioAssay data set” (2004)
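Cells were grown in 96-well plates and exposed to each compound for 48 hours at five concentrations; endpoints were interpolated linearly between bracketing concentrations, or set to the highest concentration if not reached. GI50 is the concentration that inhibits growth by half.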 The source made the active and inactive calls. Rule as the data show it: active = GI50 up to about 1.1 µM and inactive = higher.

Tests used:
Assay in all cases: growth of human tumour cells (NCI), 48 h
786-0 = system: 786-0
A498 = system: A498
BT-549 = system: BT-549
CAKI-1 = system: CAKI-1
HOP-92 = system: HOP-92
HT-29 = system: HT-29
MDA-MB-231 = system: MDA-MB-231
MDA-N = system: MDA-N
MOLT-4 = system: MOLT-4
NCI/ADR-RES = system: NCI/ADR-RES
OVCAR-3 = system: OVCAR-3
OVCAR-5 = system: OVCAR-5
PC-3 = system: PC-3
RPMI-8226 = system: RPMI-8226
RXF 393 = system: RXF 393
SK-MEL-5 = system: SK-MEL-5
SR = system: SR
Hs-578T = system: Hs-578T

Measured: GI50

O=C(O)c1cc(Cl)cc2c1NC1(N2)C(=O)Nc2ccccc21 (centres undefined)
inactive: 786-0 > 100 µM | A498 > 100 µM | BT-549 > 100 µM | CAKI-1 > 100 µM | HOP-92 > 100 µM | HT-29 78.5 µM | MDA-MB-231 > 100 µM | MDA-N > 100 µM | MOLT-4 > 100 µM | NCI/ADR-RES > 100 µM | OVCAR-3 > 100 µM | OVCAR-5 > 100 µM | PC-3 > 100 µM | RPMI-8226 > 100 µM | RXF 393 52.6 µM | SK-MEL-5 > 100 µM | SR 65.8 µM

c1cn[nH]c1 [PYRAZOLE]
inactive: 786-0 > 10 µM | A498 > 10 µM | HOP-92 > 10 µM | HT-29 > 10 µM | Hs-578T > 10 µM | MDA-N > 10 µM | MOLT-4 > 10 µM | NCI/ADR-RES > 10 µM | OVCAR-3 > 10 µM | PC-3 > 10 µM | RPMI-8226 > 10 µM | RXF 393 > 10 µM | SK-MEL-5 > 10 µM | SR > 10 µM

CC1S/C(=N\N=C2/C(=O)Nc3ccc(Br)cc32)N(C2CCCCC2)C1=O (centres undefined)
inactive: 786-0 2.59 µM | A498 3.04 µM | CAKI-1 1.8 µM | HOP-92 7.46 µM | HT-29 8.69 µM | Hs-578T 3.22 µM | MDA-MB-231 2.18 µM | MDA-N 12.1 µM | MOLT-4 5.37 µM | NCI/ADR-RES 3.4 µM | OVCAR-3 2.75 µM | OVCAR-5 14.4 µM | PC-3 5.36 µM | RPMI-8226 16.8 µM | RXF 393 3.21 µM | SK-MEL-5 40.6 µM | SR 5.06 µM

Nc1c2ccccc2nc2c1ccc1ncccc12
inactive: 786-0 9.79 µM | BT-549 48.3 µM | CAKI-1 25.7 µM | HOP-92 22.8 µM | HT-29 11.5 µM | MDA-MB-231 20.8 µM | MDA-N 28.1 µM | MOLT-4 5.15 µM | NCI/ADR-RES 19.9 µM | OVCAR-3 24 µM | OVCAR-5 21.5 µM | PC-3 16.3 µM | RXF 393 24.8 µM | SK-MEL-5 28.4 µM | SR 12.2 µM

CC(C)[C@H](NC(=O)[C@@H](O)[C@H](N)Cc1ccccc1)C(=O)N[C@@H](Cc1ccccc1)C(=O)O
inactive: 786-0 > 100 µM | A498 > 100 µM | CAKI-1 > 100 µM | HOP-92 > 100 µM | Hs-578T > 100 µM | MDA-MB-231 > 100 µM | MDA-N > 100 µM | MOLT-4 > 100 µM | NCI/ADR-RES > 100 µM | OVCAR-3 > 100 µM | OVCAR-5 > 100 µM | PC-3 > 100 µM | RPMI-8226 > 100 µM | SK-MEL-5 > 100 µM | SR > 100 µM

CS/C(=N\Nc1cnc2ccccc2n1)NS(=O)(=O)c1cc(C)c(Cl)cc1Cl
inactive: 786-0 > 100 µM | A498 43.3 µM | BT-549 > 100 µM | CAKI-1 53.5 µM | HOP-92 15.5 µM | HT-29 > 100 µM | Hs-578T > 100 µM | MDA-MB-231 44.2 µM | MOLT-4 > 100 µM | NCI/ADR-RES 84.7 µM | OVCAR-3 59.6 µM | OVCAR-5 > 100 µM | PC-3 > 100 µM | RXF 393 > 100 µM | SK-MEL-5 > 100 µM

CC(C)(C)OC(=O)[C@@H]1ON2O[C@H](OC3CCCC3(c3ccccc3)c3ccccc3)C[C@H]3OC(=O)[C@@H]1[C@H]32 (some centres undefined)
inactive: 786-0 50.1 µM | BT-549 66.7 µM | CAKI-1 53.5 µM | HT-29 38.8 µM | MDA-MB-231 > 100 µM | MDA-N 61.7 µM | MOLT-4 > 10 µM | NCI/ADR-RES 33.9 µM | OVCAR-3 16.1 µM | OVCAR-5 > 100 µM | PC-3 26.8 µM | RXF 393 25.7 µM | SK-MEL-5 41.6 µM | SR > 100 µM

BrC1=C(Br)C2(SCCS2)[C@H]2C[C@@H]1c1ccccc12
inactive: 786-0 58.3 µM | A498 > 100 µM | BT-549 38.4 µM | CAKI-1 > 91.2 µM | HOP-92 > 59.2 µM | HT-29 10.2 µM | MDA-MB-231 60.8 µM | MDA-N 4.07 µM | MOLT-4 13.9 µM | NCI/ADR-RES 61.5 µM | OVCAR-3 > 100 µM | OVCAR-5 > 100 µM | PC-3 95.5 µM | RPMI-8226 13.9 µM | RXF 393 > 31.2 µM | SK-MEL-5 9.38 µM | SR 9.4 µM

CC(C)C(NC(=O)C(Cc1ccccc1)NC(=O)[C@H]1CCC[C@H]1NC(=O)C(N)Cc1ccc(O)cc1)C(N)=O (some centres undefined)
inactive: 786-0 > 100 µM | A498 > 100 µM | CAKI-1 > 100 µM | HOP-92 > 100 µM | HT-29 > 100 µM | Hs-578T > 100 µM | MDA-MB-231 > 100 µM | MDA-N > 100 µM | MOLT-4 > 100 µM | NCI/ADR-RES > 100 µM | OVCAR-3 > 100 µM | OVCAR-5 > 100 µM | PC-3 > 100 µM | RPMI-8226 > 100 µM | RXF 393 > 100 µM | SK-MEL-5 17.8 µM | SR > 100 µM

CO/C(=N\N=C\c1ccc(OC)cc1OC)c1ccncc1
inactive: 786-0 > 10 µM | A498 > 10 µM | MOLT-4 > 10 µM | NCI/ADR-RES > 10 µM | OVCAR-5 > 10 µM | PC-3 > 10 µM | RPMI-8226 > 10 µM | RXF 393 > 10 µM | SK-MEL-5 > 10 µM | SR > 10 µM

Cc1cc2c(cc1Cl)SC(c1ccccc1O)NS2(=O)=O (centres undefined)
inactive: 786-0 34.7 µM | A498 > 100 µM | BT-549 47.2 µM | CAKI-1 50.6 µM | HOP-92 54.1 µM | HT-29 45.4 µM | Hs-578T 38.5 µM | MDA-MB-231 32.4 µM | MOLT-4 12.5 µM | NCI/ADR-RES 30.7 µM | OVCAR-3 21.7 µM | OVCAR-5 40.1 µM | PC-3 68.5 µM | RXF 393 53.5 µM | SK-MEL-5 42.7 µM | SR 16.4 µM

N/N=C(\Nc1ccccc1)SCc1ccccc1
inactive: 786-0 > 100 µM | A498 > 100 µM | BT-549 > 100 µM | CAKI-1 > 100 µM | HOP-92 > 100 µM | HT-29 > 100 µM | MDA-MB-231 > 100 µM | MDA-N > 100 µM | MOLT-4 > 100 µM | NCI/ADR-RES > 100 µM | OVCAR-3 > 100 µM | OVCAR-5 > 100 µM | PC-3 > 100 µM | RPMI-8226 > 100 µM | RXF 393 > 100 µM | SK-MEL-5 > 100 µM | SR > 100 µM

Cn1cc(NC(=O)c2cc(NC(=O)c3cc(NC=O)cn3C)cn2C)cc1C(=O)NCCC(=N)N [STALLIMYCIN]
inactive: 786-0 > 100 µM | A498 87.9 µM | BT-549 > 100 µM | CAKI-1 > 100 µM | HT-29 > 100 µM | Hs-578T 53.1 µM | MDA-MB-231 > 100 µM | MOLT-4 > 100 µM | NCI/ADR-RES > 100 µM | OVCAR-3 > 100 µM | OVCAR-5 > 100 µM | PC-3 > 100 µM | RPMI-8226 > 100 µM | RXF 393 > 100 µM | SK-MEL-5 > 100 µM
